Numbers after ± are expanded uncertainties.
Test: xn = mol fraction of the nth substance listed
Details: 101 kPa, Liquid

CC1COC(=O)O1 (configuration not stated) [4-methyl-1,3-dioxolan-2-one] + Cc1ccc(C)cc1
Details | mass density [kg/m3]
293.15 K, x2 = 0 | 1200.25 ± 40
293.15 K, x2 = 0.0487 | 1177.59 ± 40
293.15 K, x2 = 0.1238 | 1144.26 ± 40
293.15 K, x2 = 0.1793 | 1120.81 ± 40
293.15 K, x2 = 0.2482 | 1093.01 ± 40
293.15 K, x2 = 0.3125 | 1068.33 ± 40
293.15 K, x2 = 0.381 | 1043.26 ± 40
293.15 K, x2 = 0.4371 | 1023.64 ± 40
293.15 K, x2 = 0.4972 | 1003.44 ± 40
293.15 K, x2 = 0.5622 | 982.49 ± 40
293.15 K, x2 = 0.6329 | 960.71 ± 40
293.15 K, x2 = 0.6938 | 942.7 ± 40
293.15 K, x2 = 0.7421 | 928.88 ± 40
293.15 K, x2 = 0.8023 | 912.2 ± 40
293.15 K, x2 = 0.8592 | 896.93 ± 40
293.15 K, x2 = 0.9247 | 879.91 ± 40
303.15 K, x2 = 0 | 1180.56 ± 40
303.15 K, x2 = 0.0523 | 1157.1 ± 40
303.15 K, x2 = 0.123 | 1126.84 ± 40
303.15 K, x2 = 0.1836 | 1102.14 ± 40
303.15 K, x2 = 0.2381 | 1080.85 ± 40
303.15 K, x2 = 0.3263 | 1048.15 ± 40
303.15 K, x2 = 0.3741 | 1031.29 ± 40
303.15 K, x2 = 0.4233 | 1014.5 ± 40
303.15 K, x2 = 0.4794 | 996.06 ± 40
303.15 K, x2 = 0.5573 | 971.57 ± 40
303.15 K, x2 = 0.6233 | 951.77 ± 40
303.15 K, x2 = 0.6843 | 934.2 ± 40
303.15 K, x2 = 0.7538 | 914.94 ± 40
303.15 K, x2 = 0.8148 | 898.66 ± 40
303.15 K, x2 = 0.8731 | 883.59 ± 40
303.15 K, x2 = 0.9362 | 867.79 ± 40
313.15 K, x2 = 0 | 1161.28 ± 40
313.15 K, x2 = 0.0543 | 1137.8 ± 40
313.15 K, x2 = 0.1173 | 1111.72 ± 40
313.15 K, x2 = 0.1598 | 1094.8 ± 40
313.15 K, x2 = 0.2294 | 1068.21 ± 40
313.15 K, x2 = 0.2849 | 1047.95 ± 40
313.15 K, x2 = 0.3598 | 1021.87 ± 40
313.15 K, x2 = 0.4381 | 996.03 ± 40
313.15 K, x2 = 0.482 | 982.14 ± 40
313.15 K, x2 = 0.5359 | 965.64 ± 40
313.15 K, x2 = 0.6021 | 946.14 ± 40
313.15 K, x2 = 0.6721 | 926.39 ± 40
313.15 K, x2 = 0.7359 | 909.11 ± 40
313.15 K, x2 = 0.8243 | 886.17 ± 40
313.15 K, x2 = 0.8817 | 871.85 ± 40
313.15 K, x2 = 0.9274 | 860.74 ± 40
323.15 K, x2 = 0 | 1142.43 ± 40
323.15 K, x2 = 0.0623 | 1116.49 ± 40
323.15 K, x2 = 0.1246 | 1091.71 ± 40
323.15 K, x2 = 0.1822 | 1069.79 ± 40
323.15 K, x2 = 0.2483 | 1045.74 ± 40
323.15 K, x2 = 0.3193 | 1021.16 ± 40
323.15 K, x2 = 0.3719 | 1003.72 ± 40
323.15 K, x2 = 0.4389 | 982.42 ± 40
323.15 K, x2 = 0.5032 | 962.87 ± 40
323.15 K, x2 = 0.5579 | 946.88 ± 40
323.15 K, x2 = 0.6234 | 928.45 ± 40
323.15 K, x2 = 0.6972 | 908.56 ± 40
323.15 K, x2 = 0.7529 | 894.11 ± 40
323.15 K, x2 = 0.8137 | 878.84 ± 40
323.15 K, x2 = 0.8724 | 864.57 ± 40
323.15 K, x2 = 0.9378 | 849.15 ± 40
333.15 K, x2 = 0 | 1123.99 ± 40
333.15 K, x2 = 0.0598 | 1099.91 ± 40
333.15 K, x2 = 0.1387 | 1069.71 ± 40
333.15 K, x2 = 0.1738 | 1056.82 ± 40
333.15 K, x2 = 0.2384 | 1033.93 ± 40
333.15 K, x2 = 0.3283 | 1003.8 ± 40
333.15 K, x2 = 0.3918 | 983.64 ± 40
333.15 K, x2 = 0.452 | 965.32 ± 40
333.15 K, x2 = 0.5138 | 947.26 ± 40
333.15 K, x2 = 0.5821 | 928.14 ± 40
333.15 K, x2 = 0.6518 | 909.44 ± 40
333.15 K, x2 = 0.7139 | 893.44 ± 40
333.15 K, x2 = 0.783 | 876.29 ± 40
333.15 K, x2 = 0.8346 | 863.9 ± 40
333.15 K, x2 = 0.8814 | 852.95 ± 40
333.15 K, x2 = 0.9471 | 837.99 ± 40
343.15 K, x2 = 0 | 1105.98 ± 40
343.15 K, x2 = 0.0643 | 1081 ± 40
343.15 K, x2 = 0.1241 | 1058.78 ± 40
343.15 K, x2 = 0.1839 | 1037.51 ± 40
343.15 K, x2 = 0.245 | 1016.69 ± 40
343.15 K, x2 = 0.3183 | 992.89 ± 40
343.15 K, x2 = 0.3891 | 971.03 ± 40
343.15 K, x2 = 0.4498 | 953.11 ± 40
343.15 K, x2 = 0.5021 | 938.24 ± 40
343.15 K, x2 = 0.5721 | 919.11 ± 40
343.15 K, x2 = 0.6592 | 896.46 ± 40
343.15 K, x2 = 0.7134 | 882.94 ± 40
343.15 K, x2 = 0.7635 | 870.82 ± 40
343.15 K, x2 = 0.8247 | 856.45 ± 40
343.15 K, x2 = 0.8848 | 842.78 ± 40
343.15 K, x2 = 0.9522 | 827.92 ± 40
353.15 K, x2 = 0 | 1088.38 ± 40
353.15 K, x2 = 0.0505 | 1069.32 ± 40
353.15 K, x2 = 0.1184 | 1044.77 ± 40
353.15 K, x2 = 0.1739 | 1025.56 ± 40
353.15 K, x2 = 0.2289 | 1007.26 ± 40
353.15 K, x2 = 0.2847 | 989.41 ± 40
353.15 K, x2 = 0.3571 | 967.26 ± 40
353.15 K, x2 = 0.4248 | 947.53 ± 40
353.15 K, x2 = 0.4972 | 927.39 ± 40
353.15 K, x2 = 0.5539 | 912.26 ± 40
353.15 K, x2 = 0.6198 | 895.34 ± 40
353.15 K, x2 = 0.674 | 881.93 ± 40
353.15 K, x2 = 0.7354 | 867.23 ± 40
353.15 K, x2 = 0.7842 | 855.91 ± 40
353.15 K, x2 = 0.8527 | 840.5 ± 40
353.15 K, x2 = 0.9247 | 824.87 ± 40

From the NIST ThermoML archive (doi:10.1016/j.jct.2005.01.017)
